Measurements published in US8466167B2, “Compounds and compositions as TLR activity modulators” (IRM LLC, priority 2008, dated 2013).
pEC50: −log10 of the molar value.

Target: T1, human TLR8 (Homo sapiens, UniProt Q9NR97)
T1 construct: expressed in transfected cells; host or cells: HEK 293
T1 sequence (Q9NR97 27-1041): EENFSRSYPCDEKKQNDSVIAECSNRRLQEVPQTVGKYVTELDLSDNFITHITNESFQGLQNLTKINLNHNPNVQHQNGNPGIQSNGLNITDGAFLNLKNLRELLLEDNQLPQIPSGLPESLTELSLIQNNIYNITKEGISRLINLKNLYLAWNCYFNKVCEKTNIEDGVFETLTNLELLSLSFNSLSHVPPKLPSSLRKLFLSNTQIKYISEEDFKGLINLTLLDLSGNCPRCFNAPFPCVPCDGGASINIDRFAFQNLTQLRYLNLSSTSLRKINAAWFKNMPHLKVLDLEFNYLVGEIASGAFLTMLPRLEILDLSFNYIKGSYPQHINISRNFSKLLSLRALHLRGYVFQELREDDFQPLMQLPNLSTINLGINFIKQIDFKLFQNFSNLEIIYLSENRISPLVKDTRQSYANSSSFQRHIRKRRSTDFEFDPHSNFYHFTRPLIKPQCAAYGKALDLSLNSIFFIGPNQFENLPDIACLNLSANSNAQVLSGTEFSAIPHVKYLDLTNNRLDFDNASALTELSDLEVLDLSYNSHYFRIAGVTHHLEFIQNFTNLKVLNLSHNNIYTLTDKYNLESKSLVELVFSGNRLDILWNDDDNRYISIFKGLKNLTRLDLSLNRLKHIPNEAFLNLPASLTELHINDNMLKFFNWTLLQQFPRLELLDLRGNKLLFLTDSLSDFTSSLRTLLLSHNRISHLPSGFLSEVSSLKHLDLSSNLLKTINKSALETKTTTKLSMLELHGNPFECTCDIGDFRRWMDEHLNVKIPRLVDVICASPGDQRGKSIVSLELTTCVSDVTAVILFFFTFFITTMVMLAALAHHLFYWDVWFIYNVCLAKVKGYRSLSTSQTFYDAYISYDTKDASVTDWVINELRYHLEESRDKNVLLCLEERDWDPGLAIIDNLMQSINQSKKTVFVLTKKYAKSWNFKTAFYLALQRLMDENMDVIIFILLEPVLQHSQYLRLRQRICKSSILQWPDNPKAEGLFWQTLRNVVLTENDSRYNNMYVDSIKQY
Experiment: Reporter gene assay, HEK293-TLR8 (NF-kB-driven luciferase)
Assay type: cell-based
Details: TLR-8 stimulation; read-out: Human TLR-8 EC50
Description: (§1) Human embryonic kidney 293 (HEK 293) cells are stably transfected with human TLR7 or TLR8 and an NF-kB-driven luciferase reporter vector (pNifty-Luciferase). As a control assay, normal Hek293 transfected with pNifty-Luc are used. Cells are cultured in DMEM supplemented with 2 mM L-glutamine, 10% heart inactivated FBS, 1% penicillin and streptomycin, 2 μg/ml puromycin (InvivoGen #ant-pr-5) and 5 μg/ml of blasticidin (Invitrogen #46-1120). Bright-Glo™ Luciferase assay buffer and substrate are supplied by Promega #E263B and #E264B (assay substrate and buffer respectively). 384 well clear-bottom plates are supplied by Greiner bio-one (#789163-G) and are GNF custom bar-coded plates.
(§2) Cells are plated at 25,000 cells/well in 384-well plates in a final volume of 50 μl of media. Cells are allowed to adhere to the plates after overnight (18 hours) culture at 37° C. 5% CO2. Serially diluted experimental and positive control compounds are then dispensed to each well and incubated for 7 hours at 37° C. 5% CO2. Cells stimulated with DMSO alone also serve as negative controls. After the incubation, 30 μl of the pre-mix assay buffer and substrate buffer are added to each well according to manufacturer's instructions. The luminescence signal is read on a CLIPR machine with an integration time of 20 seconds per plate.
(§3) Dose response curves are generated for each compound and EC50 values were determined as the concentration that gives 50% of the maximal signal.

pEC50	SMILES
< 4.00	Cc1ccc2c(c1)nc(N)c1ncc(CCc3ccc(C(C)N4CCN(C)CC4)cc3)cc12 (centres unmarked) [Example 188, 8-methyl-2-(4-(1-(4-methylpiperazin-1-yl)ethyl)phenethyl)benzo[f][1,7]naphthyridin-5-amine]
5.37	Cc1ccc2c(c1)nc(N)c1ncc(CCc3ccc(C(C)NCCc4ccncc4)cc3)cc12 (centres unmarked) [Example 190, 8-methyl-2-(4-(1-(2-(pyridin-4-yl)ethylamino)ethyl)phenethyl)benzo[f][1,7]naphthyridin-5-amine]
5.22	CCN(CC)CCNC(C)c1ccc(CCc2cnc3c(N)nc4cc(C)ccc4c3c2)cc1 (centres unmarked) [Example 191, N^1-(1-(4-(2-(5-amino-8-methylbenzo[f][1,7]naphthyridin-2-yl)ethyl)phenyl)ethyl)-N^2,N^2-diethylethane-1,2-diamine]
5.59	Cc1ccc2c(c1)nc(N)c1ncc(CCc3ccc(C(C)(C)N)cc3)cc12 [Example 196, 2-(4-(2-aminopropan-2-yl)phenethyl)-8-methylbenzo[f][1,7]naphthyridin-5-amine]
4.62	Cc1ccc2c(c1)nc(N)c1ncc(CCc3ccc(C(C)N4CCC(C(=O)O)C4)cc3)cc12 (centres unmarked) [Example 193, 1-(1-(4-(2-(5-amino-8-methylbenzo[f][1,7]naphthyridin-2-yl)ethyl)phenyl)ethyl)pyrrolidine-3-carboxylic acid]
4.09	Cc1ccc2c(c1)nc(N)c1ncc(CCc3ccc(C(C)NCCC(=O)O)cc3)cc12 (centres unmarked) [Example 187, 3-(1-(4-(2-(5-amino-8-methylbenzo[f][1,7]naphthyridin-2-yl)ethyl)phenyl)ethylamino)propanoic acid]
5.21	Cc1ccc2c(c1)nc(N)c1ncc(CCc3ccc(C(C)NC(C)CN(C)C)cc3)cc12 (centres unmarked) [Example 189, N^2-(1-(4-(2-(5-amino-8-methylbenzo[f][1,7]naphthyridin-2-yl)ethyl)phenyl)ethyl)-N^1,N^1-dimethylpropane-1,2-diamine]
4.96	Cc1ccc2c(c1)nc(N)c1ncc(CCc3ccc(C(C)NCCN(C)C)cc3)cc12 (centres unmarked) [Example 186, N^1-(1-(4-(2-(5-amino-8-methylbenzo[f][1,7]naphthyridin-2-yl)ethyl)phenyl)ethyl)-N^2,N^2-dimethylethane-1,2-diamine]
5.28	Cc1ccc2c(c1)nc(N)c1ncc(CCc3ccc(C(C)N4CCC(O)C4)cc3)cc12 (centres unmarked) [Example 195, 1-(1-(4-(2-(5-amino-8-methylbenzo[f][1,7]naphthyridin-2yl)ethyl)phenyl)ethyl)pyrrolidin-3-ol]
4.82	Cc1ccc2c(c1)nc(N)c1ncc(CCc3ccc(CN4CCCC4)cc3)cc12 [Example 177, 8-methyl-2-(4-(pyrrolidin-1-ylmethyl)phenethyl)benzo[f][1,7]naphthyridin-5-amine]

Target: T2, human TLR7 (Homo sapiens, UniProt Q9NYK1)
T2 construct: expressed in transfected cells; host or cells: HEK 293
T2 sequence (Q9NYK1 27-1049): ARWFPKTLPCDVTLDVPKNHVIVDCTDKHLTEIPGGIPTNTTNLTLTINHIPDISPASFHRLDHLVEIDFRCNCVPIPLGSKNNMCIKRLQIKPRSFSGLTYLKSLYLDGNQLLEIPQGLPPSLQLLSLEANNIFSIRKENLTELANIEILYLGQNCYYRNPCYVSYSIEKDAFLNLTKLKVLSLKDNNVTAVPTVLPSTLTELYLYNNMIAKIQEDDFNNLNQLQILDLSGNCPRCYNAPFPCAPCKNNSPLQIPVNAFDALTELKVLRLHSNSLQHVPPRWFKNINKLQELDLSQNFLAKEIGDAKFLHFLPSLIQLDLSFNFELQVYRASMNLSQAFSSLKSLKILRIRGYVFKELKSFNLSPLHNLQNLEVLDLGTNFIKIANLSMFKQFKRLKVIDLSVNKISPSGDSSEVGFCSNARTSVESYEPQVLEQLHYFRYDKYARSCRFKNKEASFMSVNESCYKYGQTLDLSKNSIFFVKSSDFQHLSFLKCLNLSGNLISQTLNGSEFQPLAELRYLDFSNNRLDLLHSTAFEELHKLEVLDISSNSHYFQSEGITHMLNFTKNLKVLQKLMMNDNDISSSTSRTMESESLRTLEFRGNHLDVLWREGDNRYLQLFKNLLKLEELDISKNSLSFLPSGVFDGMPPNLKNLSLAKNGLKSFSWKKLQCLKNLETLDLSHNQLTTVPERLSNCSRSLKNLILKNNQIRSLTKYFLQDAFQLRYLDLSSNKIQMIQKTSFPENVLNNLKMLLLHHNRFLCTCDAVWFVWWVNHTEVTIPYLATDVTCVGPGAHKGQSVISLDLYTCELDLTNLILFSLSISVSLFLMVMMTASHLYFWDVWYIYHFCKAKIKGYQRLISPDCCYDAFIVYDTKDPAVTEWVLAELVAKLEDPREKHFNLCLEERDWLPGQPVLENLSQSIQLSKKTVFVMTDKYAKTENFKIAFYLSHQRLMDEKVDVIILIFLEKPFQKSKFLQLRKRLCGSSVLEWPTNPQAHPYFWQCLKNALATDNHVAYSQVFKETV
Experiment: Reporter gene assay, HEK293-TLR7 (NF-kB-driven luciferase)
Assay type: cell-based
Details: HEK293-TLR7; read-out: EC50 in HEK293-TLR7 assay
Description: as §1, §2, §3

pEC50	SMILES
4.62	Nc1nc2ccccc2c2ccc(=O)[nH]c12 [Example 15, 5-aminobenzo[f][1,7]naphthyridin-3(4H)-one]

Same assay, conditions: TLR-7 stimulation; read-out: Human TLR-7 EC50

pEC50	SMILES
7.46	Cc1ccc2c(c1)nc(N)c1ncc(CCc3ccc(CCCO)cc3)cc12 [Example 62, 3-(4-(2-(5-amino-8-methylbenzo[f][1,7]naphthyridin-2-yl)ethyl)phenyl)propan-1-ol]
7.62	Cc1ccc2c(c1)nc(N)c1ncc(CCc3ccc(CCC(C)(C)O)cc3)cc12 [Example 63, 4-(4-(2-(5-amino-8-methylbenzo[f][1,7]naphthyridin-2-yl)ethyl)phenyl)-2-methylbutan-2-ol]
6.67	CCCOC(=O)Oc1ccc(CCc2cnc3c(N)nc4cc(C)ccc4c3c2)cc1 [Example 138, 4-(2-(5-amino-8-methylbenzo[f][1,7]naphthyridin-2-yl)ethyl)phenyl propyl carbonate]
6.46	Cc1ccc2c(c1)nc(N)c1ncc(CCc3ccc(Oc4ccccc4)cc3)cc12 [Example 46, 8-methyl-2-(4-phenoxyphenethyl)benzo[f][1,7]naphthyridin-5-amine]
6.97	Cc1ccc2c(c1)nc(N)c1ncc(CCc3ccc4[nH]ccc4c3)cc12 [Example 44, 2-(2-(1H-indol-5-yl)ethyl)-8-methylbenzo[f][1,7]naphthyridin-5-amine]
6.24	COC(=O)CCc1ccc(CCc2cnc3c(N)nc4cc(C)ccc4c3c2)cc1 [Example 61, methyl 3-(4-(2-(5-amino-8-methylbenzo[f][1,7]naphthyridin-2-yl)ethyl)phenyl)propanoate]
6.25	COc1ccc(CCc2cnc3c(N)nc4cc(C)ccc4c3c2)cc1OC [Example 178, 2-(3,4-dimethoxyphenethyl)-8-methylbenzo[f][1,7]naphthyridin-5-amine]
7.85	Cc1ccc2c(c1)nc(N)c1ncc(CCc3ccc(OCCN4CCOCC4)cc3C)cc12 [Example 147, 8-methyl-2-(2-methyl-4-(2-morpholinoethoxy)phenethyl)benzo[f][1,7]naphthyridin-5-amine]
6.56	CCN1CCN(C(=O)c2ccc(CCc3cnc4c(N)nc5cc(C)ccc5c4c3)c(C)c2)CC1 [Example 126, (4-(2-(5-amino-8-methylbenzo[f][1,7]naphthyridin-2-yl)ethyl)-3-methylphenyl)(4-ethylpiperazin-1-yl)methanone]
